# Tests used:
# [1] = tested on: hamster cheek pouch arterioles; experiment: Vascular constriction in hamster cheek pouch arterioles; design: species or system Golden hamster
# Experimental: Adenosine, inosine, cromolyn, compound 48/80, methylene blue, acetylcholine, and components for saline solutions used to bathe arterioles are obtained from Sigma. 8(p-sulphophenyl)theo-phylline was obtained from Research Biochemicals, Inc. (Natick, Mass.).
# Arterioles (luminal diameter approximately 60 μm) are dissected from male Golden hamster cheek pouches, transferred to a 37° C. tissue chamber, and cannulated at both ends (see Duling et al., Am. J. Physiol., (241) (Heart Circ. Physiol., (10) pp. H108-H116 (1981); Duling et al., Microcirculatory Technology, edited by C. H. Baker and W. G. Nastuk, Orlando Academic Press, pp. 265-280 (1986)). Changes in luminal diameter in response to abluminal delivery of adenosine (10^-8 M to 10^-4 M) are measured using videotaped microscopic observation and video calipers with continuous output, to generate cumulative concentration-response curves.
# Examination of the abluminal surface of the vessel after staining with methylene blue reveal large numbers of mast cells closely associated with the vessel wall.
# [2] = tested on: myocardial infarct; experiment: Reduction of myocardial infarct size in anesthetized dogs; type: in vivo, dog
# Experimental: The effect of antagonist compound IV, with high affinity for canine A3 adenosine receptors, on myocardial infarct size is compared to a vehicle-treated control group in barbital-anesthetized dogs subjected to 90 minutes of left anterior descending coronary artery occlusion followed by 3 hours of reperfilsion. Vehicle (5 μM NaOH in isotonic saline) or antagonist are infused at a rate of 1 ml/min directly into the left anterior descending coronary artery distal to the occlusion site beginning 10 minutes before occlusion and are continued throughout the entire ischemic period. The myocardial region at risk and infarct size are determined by the triphenyltetrazolium histochemical technique and regional myocardial blood flow by radioactive microspheres. Coronary sinus LDH activity and histamine concentrations were measured at various times throughout the experiments and myeloperoxidase activity was determined at the conclusion of the experiments as an index of neutrophil infiltration into the ischemic-reperfused mycocardium. Ten dogs were included in this preliminary study, 4 in the vehicle-treated group and 6 in the antagonist treated group.
# [3] = biological target: T1, human A3 adenosine receptor (Homo sapiens, UniProt P0DMS8); experiment: Radioligand binding assay, A3 receptor; settings: [3H]-NECA or [125I]-ABA; membranes of transfected COS7 cells; read-out: IC50, inhibition of specific radioligand binding to A3 receptor
# T1 construct: expressed in transfected cells
# T1 sequence (P0DMS8 1-318): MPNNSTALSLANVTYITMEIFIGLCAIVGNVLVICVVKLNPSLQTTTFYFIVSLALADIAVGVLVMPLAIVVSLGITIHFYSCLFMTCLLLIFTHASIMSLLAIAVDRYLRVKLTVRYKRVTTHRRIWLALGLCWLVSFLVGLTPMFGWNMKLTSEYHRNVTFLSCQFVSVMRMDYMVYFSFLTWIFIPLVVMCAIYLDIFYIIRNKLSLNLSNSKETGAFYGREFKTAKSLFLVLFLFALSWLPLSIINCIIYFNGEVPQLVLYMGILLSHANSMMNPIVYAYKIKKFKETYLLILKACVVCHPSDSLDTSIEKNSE
# Experimental: Membranes prepared from transfected COS7 cells were utilized in a binding assay to measure the affinity of agonists and antagonists on the human adenosine receptors. […] Bound radioactivity was measured by scintillation counting. Binding data were analyzed by the use on nonlinear regression curve fitting program Graph Pad InPlot, Version 3.0 (Graph Pad Software, San Diego). […] The affinities of agonists and antagonists on human adenosine receptor subtypes were measured in competition binding assays using the radiolabeled adenosine agonists, [^3 H]-cyclo-hexyladenosine (CHA) for A1 receptors, [^3 H]-CGS21680 (2-(p-(2-carboxyethyl)-phenylamino)-5'-N-ethyl-carboxamidoadenosine) for A2a receptors and, [^3 H]-5'-N-ethylcarboxamido adenosine ([^3 H]-NECA), or [^125 I]-N^6 -aminobenzyl adenosine (^125 I-ABA) for A3 receptors. Nonselective binding was determined with 1 μM I-ABA for A1 and A3 receptors and 10 μM NECA for A2a receptors. […]
# [4] = tested on: canine A3 adenosine receptors; experiment: Affinity for canine A3 adenosine receptors; type: binding
# [5] = biological target: T2, human A2b adenosine receptor (Homo sapiens, UniProt P29275); experiment: cAMP accumulation via A2b receptors; type: cell-based; settings: at 10 μM; stably transfected CHO cells; adenosine (10 μM) induced
# T2 construct: cAMP accumulation induced by adenosine
# T2 sequence (P29275 1-332): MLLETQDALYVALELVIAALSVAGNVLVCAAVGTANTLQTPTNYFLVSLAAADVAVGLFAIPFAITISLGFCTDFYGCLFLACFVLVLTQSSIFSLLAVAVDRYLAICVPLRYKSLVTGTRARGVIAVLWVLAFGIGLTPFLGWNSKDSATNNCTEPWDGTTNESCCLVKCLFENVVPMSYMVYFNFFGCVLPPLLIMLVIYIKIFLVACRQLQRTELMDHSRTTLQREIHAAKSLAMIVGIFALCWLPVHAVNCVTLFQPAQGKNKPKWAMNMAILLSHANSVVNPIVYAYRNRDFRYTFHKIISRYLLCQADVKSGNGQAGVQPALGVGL
# [6] = biological target: T3, human A1 adenosine receptor (Homo sapiens, UniProt P30542); experiment: Radioligand binding assay, A1 receptor; settings: [3H]-cyclohexyladenosine (CHA); membranes of transfected COS7 cells; read-out: IC50, inhibition of specific radioligand binding to A1 receptor
# T3 construct: expressed in transfected cells; host or cells: COS7 cells (transient transfection), membranes
# T3 sequence (P30542 1-326): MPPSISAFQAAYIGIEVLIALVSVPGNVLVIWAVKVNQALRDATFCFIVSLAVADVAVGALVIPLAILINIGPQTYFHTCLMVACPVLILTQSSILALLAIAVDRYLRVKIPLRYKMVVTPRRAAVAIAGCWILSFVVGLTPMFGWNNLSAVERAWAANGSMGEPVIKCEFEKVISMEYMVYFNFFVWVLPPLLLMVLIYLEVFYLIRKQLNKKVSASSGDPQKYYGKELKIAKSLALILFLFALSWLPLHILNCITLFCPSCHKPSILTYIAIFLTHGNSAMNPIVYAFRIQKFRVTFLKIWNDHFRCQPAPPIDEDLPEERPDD
# Description: (§1) The human A1, A2a, A2b and A3 receptor subtype cDNAs were subcloned into the expression vectors pSVL (Pharmacia, Columbus, Ohio), CMV5 (Mumby, et al., PNAS, (87) pp. 728-732 (1990)) pCDNA1 or pREP (Invitrogen). Transient expression in COS7 cells (monkey kidney cell line, ATCC CRL 1651, ATCC, Rockville, Md.) (Doyl et al. WO 95/11681) was accomplished by transfection of the cloned adenosine receptor cDNAs under the control of the SV40 promoter into mammalian cells, such as COS7. Membranes prepared from the transfected cells were utilized for the determination of binding affinity, selectivity and specificity of the human adenosine receptors for various ligands. […]
# (§2) Membranes prepared from transfected COS7 cells were utilized in a binding assay to measure the affinity of agonists and antagonists on the human adenosine receptors. […] Bound radioactivity was measured by scintillation counting. Binding data were analyzed by the use on nonlinear regression curve fitting program Graph Pad InPlot, Version 3.0 (Graph Pad Software, San Diego). Ki values were calculated using the Cheng-Prusoff derivation (Cheng, Y. C. and Prusoff, H. R. (1973) Biochem. Pharmacol. 22, 3099-3108). […] Nonselective binding was determined with 1 μM I-ABA for A1 and A3 receptors and 10 μM NECA for A2a receptors. Activity on A2b receptor subtypes was measured in the cAMP accumulation assay described below. […]
# [7] = biological target: T4, human A2a adenosine receptor (Homo sapiens, UniProt P29274); experiment: Radioligand binding assay, A2a receptor; settings: [3H]-CGS21680; membranes of transfected COS7 cells; read-out: IC50, inhibition of specific radioligand binding to A2a receptor
# T4 construct: expressed in transfected cells; host or cells: COS7 cells (transient transfection), membranes
# Description: as §1, §2
# [8] = biological target: T1, human A3 adenosine receptor; experiment: cAMP accumulation assay, A3 receptors stably expressed on CHO cells (FIG. 1); type: cell-based
# Experimental: The changes in cAMP accumulation were measured in stably transfected CHO cells expressing the human adenosine receptor subtypes. CHO cells were washed twice in phosphate buffered saline (PBS) and detached in 0.2% EDTA in PBS. After pelleting at 800 rpm for 10 min, cells were resuspended in KRH buffer (140 mM NaCl/5 mM KCl/2 mM CaCl2 /1.2 mM MgSO4 /1.2 mM KH2 PO4 /6 mM glucose/25 mM Hepes buffer, pH 7.4), washed once in KRH buffer and resuspended at 10^7 cells/mL. The cell suspension (100 μL) was mixed with 100 μL of KRH buffer containing 200 μM of the phosphodiesterase inhibitor Ro 20-1724 and incubated at 37° C. for 15 minutes. Antagonists were preincubated for 10 minutes before adding 5 μM forskolin and 60 μM adenosine. After 10 minutes, 400 μL of 100 mM acetic acid was added and the sample was boiled for 5 minutes. The supernatant was recovered by centrifugation for 15 minutes and cAMP levels were determined by radioimmunoassay ([…] kit, DuPont/NEN) using the acetylation protocol.
# [9] = tested on: asthmatics; settings: asthmatics but not nonasthmatics; cited from earlier work
# [10] = tested on: mast cells isolated from rat peritoneum; settings: cited from earlier work
# [11] = tested on: ischemic reperfused myocardium; settings: in vivo; cited from earlier work
# T4 sequence (P29274 whole entry): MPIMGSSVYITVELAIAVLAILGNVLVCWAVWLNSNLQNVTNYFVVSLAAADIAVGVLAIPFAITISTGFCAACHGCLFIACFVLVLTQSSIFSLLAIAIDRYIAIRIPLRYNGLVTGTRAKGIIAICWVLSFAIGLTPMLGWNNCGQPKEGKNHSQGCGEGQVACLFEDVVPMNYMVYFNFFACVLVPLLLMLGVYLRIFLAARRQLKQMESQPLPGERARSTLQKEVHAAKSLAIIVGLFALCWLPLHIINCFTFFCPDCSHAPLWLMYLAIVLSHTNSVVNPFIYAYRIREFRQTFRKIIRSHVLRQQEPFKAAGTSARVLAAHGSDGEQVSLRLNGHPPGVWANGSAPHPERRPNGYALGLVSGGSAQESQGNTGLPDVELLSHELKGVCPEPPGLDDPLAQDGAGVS
compound,measurement,setting,value
Cn1c(=O)c2[nH]c(-c3ccc(S(=O)(=O)O)cc3)nc2n(C)c1=O [8(p-sulfophenyl) theophylline],effect on adenosine-induced constriction,[1]; pretreatment 100 μM,did not alter the constriction
same,effect on adenosine-induced dilator responses,[1]; pretreatment 100 μM,inhibited the dilator responses
COC(=O)C1=C2C=CN(C)C=C2c2nc(-c3ccccc3)nn2C1 [Compound IV],myocardial infarct size,"[2]; 90 min LAD occlusion, 3 h reperfusion, intracoronary infusion, vs vehicle",effectively reduces myocardial infarct size
same,hemodynamics and regional myocardial blood flow in non-ischemic left circumflex coronary artery region,"[2]; at baseline or during occlusion, between groups",not different between groups
same,myeloperoxidase activity,"[2]; between the two groups, end of experiment",not different between the two groups
same,arrhythmias,"[2]; during occlusion and reperfusion, all animals",arrhythmias are encountered
same,coronary sinus LDH activity,[2]; during reperfusion,reduced
same,coronary sinus histamine concentrations,[2]; during reperfusion,reduced
same,dP/dt,[2]; during reperfusion,significantly improved
same,left anterior descending coronary artery blood flow,[2]; during reperfusion,significantly decreased
same,myeloperoxidase activity in infarcted tissue,"[2]; infarcted tissue, end of experiment",tendency for reduced activity
same,collateral blood flow,"[2]; ischemic-reperfused region, during occlusion, particularly subepicardial",slightly greater
same,ventricular fibrillation requiring cardioversion,[2]; some dogs from each group,some dogs from each group progress to ventricular fibrillation requiring cardioversion
same,IC50,[3],13 nM
same,affinity for canine A3 adenosine receptors,[4],high affinity
same,"IC50, cAMP accumulation via A2b receptors",[5],inactive
same,IC50,[6],5.3 µM
same,IC50,[7],27.5 µM
same,effect on inhibition of cAMP accumulation resulting from adenosine activation of A3 receptors,"[8]; 10 μM compound IV, forskolin induced cAMP",prevents the inhibition of cAMP accumulation
same,effect on basal cAMP levels,[8]; basal,no effect
same,effect on levels of cAMP accumulated with forskolin alone,[8]; forskolin alone,no effect
Nc1ncnc2c1ncn2[C@@H]1O[C@H](CO)[C@@H](O)[C@H]1O [adenosine],bronchoconstriction,[9],produce bronchoconstriction in asthmatics but not in nonasthmatics
same,constrictor response of arterioles,"[1]; 10^-6 M adenosine, abluminal","elicited an intense, transient constriction"
same,dilator response of arterioles,[1]; concentrations higher than 10^-6 M adenosine,induced dilator responses
same,mast cell degranulation on abluminal vessel surface,"[1]; following exposure to adenosine, methylene blue staining",mast cells are found to be degranulated
same,release of granule contents from mast cells,[10],potentiates the release of granule contents
N#Cc1cc(NC(=O)C(=O)O)c(Cl)c(NC(=O)C(=O)O)c1 [lodoxamide],myocardial ischemic injury,[11],reduces myocardial ischemic injury

# Reference: patent publication US5780481A, “Method for inhibiting activation of the human A3 adenosine receptor to treat asthma” (Merck & Co., Inc., priority 1996, dated 1998)
